Blank lines part the entries; values can stand above or below the compound they belong to.
How the values were obtained:
[1] = biological target: VMAT2 (Rattus norvegicus (Rat), UniProt Q01827); assay: Radioactivity detection of binding to VMAT2 in rats ([3H]DHTBZ binding assay, rat cerebral vesicle membrane); conditions: Table 25
Protocol: I. Radioactivity Detection of Activity of Compounds Binding to VMAT2 in Rats (Binding assay)
To determine the IC50 and Ki values of the binding of various compounds to VMAT2 in rats and to evaluate the affinity of compounds for VMAT2.
Male Wistar rat, weighing 175±25 g, was selected and the whole brain (without the cerebellum) of the rat was isolated surgically and placed into a pre-chilled sucrose solution (20 mL, 0.32 M) and homogenized by a Teflon pestle homogenizer. […] The supernatant was discarded and the precipitate obtained was placed in ice cold MilliQ water (18 mL, Millipore Corporation, Billerica, MA), incubated for 5 minutes and subjected to osmotic shock to shatter cell membrane. Then osmolarity was restored by addition of HEPES solution (25 mM, 2 mL) and potassium tartrate solution (100 mM, 2 mL). The resulting sample was centrifuged at 20,000 g for 20 min at 4° C. The supernatant was aspirated and MgSO4 solution (1 mM, 20 μL) was added. […] The precipitate was collected and resuspended in ice cold assay buffer (25 mM HEPES, 100 mM potassium tartrate, 5 mM MgSO4, 0.1 mM EDTA and 0.05 mM EGTA, pH 7.5) to obtain a vesicle suspension.
After completion of the incubation, the reaction solution was filtered (bacteria filter and collector, PerkinElmer Life and Analytical Sciences) to a filter plate and subsequently, the filter membrane was washed with 350 μL of ice-cold buffer (25 mM HEPES, 100 mM potassium tartrate, 5 mM MgSO4 and 10 mM NaCl, pH 7.5) five times. The filter plate was dried and had the bottom sealed. 40 μL of scintillation cocktail (MicroScint 20; PerkinElmer Life and Analytical Sciences) was added to each well. Radioactivity on the filter was determined by liquid scintillation spectrometry (TopCount NXT; PerkinElmer Life and Analytical Sciences).
Based on the radioactivity assay results above, IC50 and Ki were calculated. IC50 was calculated by a non-linear, least squares regression analysis using MathIQ™ (ID Business Solutions Ltd., UK). Ki values were calculated using the equation of Cheng and Prusoff (Cheng, Y., Prusoff, W. H., Biochem. Pharmacol. 22:3099-3108, 1973). Ki values were calculated in combination with the IC50 of the test compound and the historical KD in the radioactivity detection method of Eurofins Panlabs company.

[2] = Liver microsome incubation test, rat; conditions: rat liver microsomes 0.5 mg/mL, 1 μM compound, NADPH, 37° C.
Protocol: (§1) Incubation: 100 μL of an incubation system included: liver microsomes (human, rat, mouse, monkey or dog) (0.5 mg/mL), sodium phosphate buffer (100 mM), and magnesium chloride (10 mM). […] After pre-incubation of the systems at 37° C. for 3 min, NADPH was added to a final concentration of 1 mM. The reaction was started. […] Each sample at each time point was processed parallelly in duplicate and a blank control group without coenzymes and a positive control group were provided.
(§2) A certain amount of internal standard was added to the sample following termination with acetonitrile. […] Relative remaining amount was taken as the ordinate and time as the abscissa.

[3] = tested on: SD rat autonomous activity; assay: SD rat autonomous activity model (total movement distance in open field, TopScan); assay type: in vivo; conditions: SD rats, 0 hr to 1 hr post-dose
Protocol: SD rat autonomous activity models were used in the study.
• 2.1 Test animals: 32 SD rats, SPF-grade, Male, 5-7 weeks old, weighing: 200-220 g, pre-accustomed for at least 1 week before the test.
Preparation method: An appropriate amount of the medicament was weighed and dissolved with a small amount of DMSO (not more than 1% of the total volume). Then, 20% Solutol was added to obtain the desired medicament concentration and the final concentration of DMSO was <4%.
The rats were put into the detection box, pre-accustomed for 10 min and fasted. Animal grouping and dosing information were detailed in Table 35.
On the day of the test, the animals were accustomed for at least 1 hr in the test room. Rats in each group were given a vehicle or corresponding medicaments, respectively according to the doses in Table 35 in one single gavage and then put into the activity room. […] Rats of a same group should not be put in one same room among the eight activity rooms, and there was at least one rat from the control group in each round of test to prevent mutual interference. At the end of each round of test, the feces were swept out and the activity rooms were cleaned to avoid the influence of irrelevant interfering factors (odor, etc.) on the exercise activities of the rats.
The total movement distances of rats from 2 hr to 3 hr post-dose were recorded and analyzed by using a TopScan monitoring system and the reduction rate (RR) of the total movement distance was calculated, wherein RR=(Control group movement distance-Administration group movement distance)/Control group movement distance*100%.
Test data were expressed as mean±standard error of the mean (MEAN±SEM). Difference between various groups at each time point was compared by using PASW Statistics 18.0 software with one-way analysis of variance (ANOVA).
Animal grouping and dosing information were detailed in […].

[4] = Excipient compatibility test (purity after storage with excipients); assay type: physicochemical; conditions: for purity change after mixing with excipients: mixed with excipients 1:20, placed open at 60° C. for 5 days
Protocol: Then the mixture was placed open at 60° C. for 5 days.
Purity detection method: about 35 mg of the sample was weighed precisely and placed in a 25 ml measuring flask. 15 ml of acetonitrile was added to dissolve the sample by ultrasound. Water was used to dilute to a given mark and the mixture was shaken uniformly and used as sample solution to be tested. Determination was carried out based on high performance liquid chromatography, octadecyl silane bonded silica gel was used as the filler (Inerstil ODS-3V, 250 mm×4.6 mm, 5 μm); 10 mmol/L diammonium hydrogen phosphate solution (adjusting the pH value to 6.95±0.05)-acetonitrile (80:20) was used as mobile phase A, acetonitrile was used as mobile phase B, and gradient elution was carried out according to Table 39. The detection wavelength was 282 nm; the column temperature was 35° C.; and the flow rate was 1.0 ml/min. 10 μl of the sample solution to be tested was precisely measured and injected into the liquid chromatograph, and the chromatogram was recorded. Calculation was carried out by the peak area normalization method.

[5] = Pharmacokinetic test in SD rats, gavage 10 μmol/kg (plasma concentration-time curves); assay type: in vivo; conditions: male SD rats, FIG. 9
Protocol: Method of Pharmacokinetic Test in SD Rats:
The dosage of administration was 10 μmol/kg. At 0.25, 0.5, 1, 2, 3, 4, 6, 8 and 12 h post-dose, blood samples (about 0.2 mL/time point/rat) were collected to heparinized tubes.

[6] = Distribution test in SD rat brain tissue, gavage 12 μmol/kg (brain concentration, brain/plasma ratio); assay type: in vivo; conditions: SD rats, gavage 12 μmol/kg of compound 21 or VBZ, 2 h post-dose; compound 21 vs VBZ, metabolite compound 11 vs DHTBZ
Protocol: After the rats were sacrificed, the brain tissues were extracted, washed with normal saline and dried with filter paper. Cerebral vessels were stripped and the remaining brain tissues were weighed and stored at −20° C.

[7] = Liver microsome incubation test, dog; assay type: in vitro ADME; conditions: dog liver microsomes 0.5 mg/mL, 1 μM compound, NADPH, 37° C.
Protocol: as §1, §2

[8] = Liver microsome incubation test, human; conditions: human liver microsomes 0.5 mg/mL, 1 μM compound, NADPH, 37° C.
Protocol: as §1, §2

[9] = Pharmacokinetic / bioavailability test in SD rats (gavage 5 μmol/kg, intravenous 2 μmol/kg); conditions: male, rat, plasma, 2 umol/kg
Protocol: At each corresponding time point post-dose, blood samples (about 1 ml/time point/rat) were collected to heparinized tubes. Within half an hour after collection, the samples were centrifuged to separate the plasma, which was transferred to 1.5 ml EP tubes and stored at −20° C. for detection.
Method for precipitating proteins was used for the pretreatment of the samples: protein precipitation was carried out in 25 μL of plasma by using 200 μL of acetonitrile containing internal standard. After high-speed centrifugation, the supernatant was diluted with water (1:1 (V/V)) and injected for analysis.

[10] = 11-P4S crystal forms A/D/E suspension competition test; assay type: physicochemical; conditions: suspension in IPA / IPAc, room temperature to 50° C., 17 hours
Protocol: Then XRPD was carried out on the solid.

Sequence of VMAT2 (Q01827 whole entry): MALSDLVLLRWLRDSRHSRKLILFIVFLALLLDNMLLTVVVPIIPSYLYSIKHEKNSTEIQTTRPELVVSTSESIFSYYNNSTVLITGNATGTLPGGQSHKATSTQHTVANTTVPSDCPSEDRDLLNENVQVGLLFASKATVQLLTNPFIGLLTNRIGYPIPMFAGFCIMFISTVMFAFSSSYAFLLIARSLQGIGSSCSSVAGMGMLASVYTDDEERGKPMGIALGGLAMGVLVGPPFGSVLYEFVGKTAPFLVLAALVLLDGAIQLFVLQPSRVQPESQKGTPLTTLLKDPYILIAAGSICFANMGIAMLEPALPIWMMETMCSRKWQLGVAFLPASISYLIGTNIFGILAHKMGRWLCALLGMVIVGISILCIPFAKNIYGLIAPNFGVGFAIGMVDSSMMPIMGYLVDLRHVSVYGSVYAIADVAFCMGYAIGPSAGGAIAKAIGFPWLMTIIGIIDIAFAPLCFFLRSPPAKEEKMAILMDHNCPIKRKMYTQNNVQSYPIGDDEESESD

- IC50 [1]: 280 nM
Compound: CCCOc1cc2c(cc1OCC)CCN1CC(CC(C)C)C(O)CC21 (centres unmarked) [Comparative Example 41, reference compound]

Compound: COc1cc2c(cc1OCCCF)CCN1CC(CC(C)C)C(O)CC21 (centres unmarked) [Comparative Example 44, reference compound]
- Elimination half-life (t1/2) in liver microsomes [2]: ~ (the data showed that the metabolism was stable and the rate of the original compound left was greater than 80% after an incubation of 60 min.)

- purity change after mixing with excipients [4]: purity dropped obviously
Compound: COc1cc2c(cc1OCC(F)(F)F)CCN1C[C@@H](CC(C)C)[C@H](O)C[C@H]21 [Compound 11-P4]
- movement distance (rat autonomous activity) ([3]; 1.25 μmol/kg): 9313±1213 mm
- movement distance (rat autonomous activity) ([3]; 2.5 μmol/kg): 5959±1615 mm
- movement distance (rat autonomous activity) ([3]; 5.0 μmol/kg): 1216±429.9 mm
- movement distance (rat autonomous activity) ([3]; 10.0 μmol/kg): 1355±524.1 mm

- exposure compared to Comparative Example 44 compound and DHTBZ [5]: higher exposure
- concentration in brain tissue compared to VBZ and DHTBZ [6]: significantly higher
Compound: COc1cc2c(cc1OCC(F)(F)F)CCN1CC(CC(C)C)C(O)CC21 (centres unmarked) [Compound 11]
- Elimination half-life (t1/2) in liver microsomes [7]: ~ (the data showed that the metabolism was stable and the rate of the original compound left was greater than 80% after an incubation of 60 min.)
- Elimination half-life (t1/2) in liver microsomes [2]: ~ (the data showed that the metabolism was stable and the rate of the original compound left was greater than 80% after an incubation of 60 min.)

Compound: COc1cc2c(cc1OCC(F)F)CCN1CC(CC(C)C)C(O)CC21 (centres unmarked) [Compound 12]
- Elimination half-life (t1/2) in liver microsomes [7]: ~ (the data showed that the metabolism was stable and the rate of the original compound left was greater than 80% after an incubation of 60 min.)
- Elimination half-life (t1/2) in liver microsomes [2]: ~ (the data showed that the metabolism was stable and the rate of the original compound left was greater than 80% after an incubation of 60 min.)
- Elimination half-life (t1/2) in liver microsomes [8]: ~ (the data showed that the metabolism was stable and the rate of the original compound left was greater than 80% after an incubation of 60 min.)

Compound: COc1cc2c(cc1OCCCC(F)(F)F)CCN1CC(CC(C)C)C(O)CC21 (centres unmarked) [Compound 13]
- Elimination half-life (t1/2) in liver microsomes [7]: ~ (the data showed that the metabolism was stable and the rate of the original compound left was greater than 80% after an incubation of 60 min.)
- Elimination half-life (t1/2) in liver microsomes [2]: ~ (the data showed that the metabolism was stable and the rate of the original compound left was greater than 80% after an incubation of 60 min.)

- IC50 [1]: 12.9 nM
Compound: CCOc1cc2c(cc1OC)C1CC(O)C(CC(C)C)CN1CC2 (centres unmarked) [Compound 16]
- Elimination half-life (t1/2) in liver microsomes [2]: ~ (the data showed that the metabolism was stable and the rate of the original compound left was greater than 80% after an incubation of 60 min.)

- IC50 [1]: 58 nM
Compound: COCCCOc1cc2c(cc1OC)C1CC(O)C(CC(C)C)CN1CC2 (centres unmarked) [Compound 17]

- IC50 [1]: 4.9 nM
Compound: CCCOc1cc2c(cc1OC)C1CC(O)C(CC(C)C)CN1CC2 (centres unmarked) [Compound 20]

- concentration in brain tissue compared to VBZ and DHTBZ [6]: significantly higher
Compound: COc1cc2c(cc1OCC(F)(F)F)CCN1CC(CC(C)C)C(OC(=O)[C@@H](N)C(C)C)CC21 (some centres unmarked) [Compound 21]

- half-life [9]: 1.67 h
Compound: COc1cc2c(cc1OC)[C@H]1C[C@@H](OC(=O)[C@@H](N)C(C)C)[C@H](CC(C)C)CN1CC2 [VBZ, valbenazine]

- purity ([4]; API alone, 0 d): 99.70%
- purity ([4]; API alone, high temperature (60° C.), open, 5 d): 99.69%
- purity ([4]; mixed with MCC 1:20, high temperature (60° C.), open, 5 d): 99.26%
- purity change after mixing with excipients [4]: no obvious change
- purity ([4]; mixed with magnesium stearate 1:20, high temperature (60° C.), open, 5 d): 99.68%
- purity ([4]; mixed with talc powder 1:20, high temperature (60° C.), open, 5 d): 99.68%
Compound: COc1cc2c(cc1OCC(F)(F)F)CCN1C[C@@H](CC(C)C)[C@H](O)C[C@H]21.Cc1ccc(S(=O)(=O)O)cc1 [crystal form A of 11-P4S]
- thermodynamic stability of crystal form [10]: most thermodynamically stable crystal form
